In ChEMBL document CHEMBL5030562, “Synthesis and antiviral evaluation of cytisine derivatives against dengue virus types 1 and 2” (Bioorg Med Chem Lett, 2021):
The source made the active and inactive calls. The rule behind the calls is not given here.

Tests used:
dengue virus type 2 [1] = assay: Antiviral activity against DENV2 infected in African green monkey Vero E6 cells assessed as inhibition of virus induced cytopathic effect at 10 uM measured after 96 hrs by immunofluorescent staining based inverted microscopic analysis relative to control; assay type: functional; settings: Vero C1008
[2] = Cytotoxicity against African green monkey Vero E6 cells assessed as reduction in cell viability by MTT assay; assay type: cell-based, Vero C1008; settings: chlorocebus sabaeus
A549 = assay: Cytotoxicity against human A549 cells assessed as reduction in cell viability by MTT assay; assay type: functional
dengue virus type 2 [3] = assay: Antiviral activity against DENV2 infected in African green monkey Vero E6 cells assessed as reduction in induced cytopathic effect at 10 uM after 96 hrs by immunofluorescent staining based inverted microscopic analysis; assay type: functional, organism-based
dengue virus type 2 [4] = assay: Antiviral activity against Dengue virus 2 infected in African green monkey Vero E6 cells assessed as inhibition of viral replication at attachment stage measured after 96 hrs by DAPI staining based fluorescence microscopic analysis; assay type: functional, organism-based; settings: Vero C1008, 96 h
dengue virus type 1 [5] = assay: Antiviral activity against DENV1 infected in African green monkey Vero E6 cells assessed as inhibition of virus induced cytopathic effect measured after 96 hrs by immunofluorescent staining based inverted microscopic analysis; assay type: functional, organism-based; settings: Vero C1008, 96 h
Influenza A virus = assay: Antiviral activity against Influenza A virus; assay type: functional, organism-based
Hepatitis B virus = assay: Antiviral activity against Hepatitis B virus; assay type: functional, organism-based
dengue virus type 1 [6] = assay: Selectivity index, ratio of CC50 for cytotoxicity in African green monkey Vero E6 cells to IC50 for Antiviral activity against DENV1 infected in African green monkey Vero E6 cells; assay type: functional, Vero C1008
dengue virus type 2 [7] = assay: Antiviral activity against DENV2 infected in human A549 cells assessed as inhibition of virus induced cytopathic effect measured after 96 hrs by immunofluorescent staining based inverted microscopic analysis; assay type: functional, organism-based; settings: A549, 96 h
[8] = Selectivity index, ratio of CC50 for cytotoxicity in human A549 cells to IC50 for Antiviral activity against DENV2 infected in African green monkey Vero E6 cells; assay type: toxicity, cell-based
[9] = Selectivity index, ratio of CC50 for cytotoxicity in African green monkey Vero E6 cells to IC50 for Antiviral activity against DENV2 infected in African green monkey Vero E6 cells; assay type: toxicity, cell-based, Vero C1008; settings: read-out: Ratio CC50/IC50
dengue virus type 2 [10] = assay: Antiviral activity against Dengue virus 2 infected in African green monkey Vero E6 cells assessed as inhibition of viral replication at post entry stage measured after 96 hrs by DAPI staining based fluorescence microscopic analysis; assay type: functional, organism-based; settings: Vero C1008, 96 h
Human respirovirus 3 = assay: Antiviral activity against Parainfluenza virus type 3; assay type: functional, organism-based
dengue virus type 2 [11] = assay: Antiviral activity against DENV2 infected in African green monkey Vero E6 cells assessed as inhibition of virus induced cytopathic effect measured after 96 hrs by immunofluorescent staining based inverted microscopic analysis; assay type: functional, organism-based; settings: Vero C1008, 96 h
dengue virus type 1 [12] = assay: Antiviral activity against DENV1 infected in African green monkey Vero E6 cell assessed as inhibition of virus induced cytopathic effect at 10 uM measured after 96 hrs by immunofluorescent staining based inverted microscopic analysis relative to control; assay type: functional; settings: Vero C1008
dengue virus type 1 [13] = assay: Antiviral activity against DENV1 infected in African green monkey Vero E6 cells assessed as reduction in induced cytopathic effect at 10 uM after 96 hrs by immunofluorescent staining based inverted microscopic analysis; assay type: functional, organism-based
dengue virus type 2 [14] = assay: Antiviral activity against Dengue virus 2 infected in African green monkey Vero E6 cells assessed as inhibition of viral replication at entry stage measured after 96 hrs by DAPI staining based fluorescence microscopic analysis; assay type: functional, organism-based; settings: Vero C1008, 96 h

| Structure (SMILES) | inhibition at 10 µM (dengue virus type 2 [1]) | CC50 [2] | CC50 (A549) | Activity (dengue virus type 2 [3]) | IC50 (dengue virus type 2 [4]) | IC50 (dengue virus type 1 [5]) | IC50 (Influenza A virus) | IC50 (Hepatitis B virus) | Ratio CC50/IC50 (dengue virus type 1 [6]) | IC50 (dengue virus type 2 [7]) | selectivity ratio [8] | selectivity ratio [9] | IC50 (dengue virus type 2 [10]) | IC50 (Human respirovirus 3) | IC50 (dengue virus type 2 [11]) | inhibition at 10 µM (dengue virus type 1 [12]) | Activity (dengue virus type 1 [13]) | IC50 (dengue virus type 2 [14]) |
| --- | --- | --- | --- | --- | --- | --- | --- | --- | --- | --- | --- | --- | --- | --- | --- | --- | --- | --- |
| CCOC(=O)CNC(=O)Nc1ccc2n(c1=O)C[C@@H]1C[C@H]2CN(C)C1 (single isomer, unassigned) | 40.3% | > 50000 nM | > 50000 nM | Active | – | – | – | – | – | – | – | – | – | – | – | – | – | – |
| CN1C[C@H]2C[C@@H](C1)c1ccc(NCc3ccccc3O)c(=O)n1C2 | 39% | > 50000 nM | > 50000 nM | Active | – | – | – | – | – | – | – | – | – | – | – | – | – | – |
| CN1C[C@H]2C[C@@H](C1)c1ccc(NCc3cn(C)c(=O)n(C)c3=O)c(=O)n1C2 (single isomer, unassigned) | 79.2% | > 50000 nM | > 50000 nM | Active | 9300 nM | 1380 nM | > 3000 nM | > 3000 nM | >36.2 | 660 nM | > 75.8 | > 109 | 237 nM | > 3000 nM | < 100 nM | 73.9% | Active | 1840 nM |
| CCOC(=O)CNC(=S)Nc1ccc2n(c1=O)C[C@@H]1C[C@H]2CN(C)C1 | 60.9% | > 50000 nM | > 50000 nM | Active | – | – | – | – | – | – | – | – | – | – | – | – | – | – |
| COC(=O)CN1C[C@H]2C[C@@H](C1)c1ccc(NCc3cn(C)c(=O)n(C)c3=O)c(=O)n1C2 | 63.9% | > 50000 nM | > 50000 nM | Active | – | – | – | – | – | – | – | – | – | – | – | – | – | – |
| Cn1cc(CNc2ccc3n(c2=O)C[C@@H]2C[C@H]3CN(C(=O)Nc3ccccc3)C2)c(=O)n(C)c1=O | 74% | > 50000 nM | > 50000 nM | Active | 6450 nM | 490 nM | > 3000 nM | > 3000 nM | >102 | 470 nM | > 106 | > 500 | < 100 nM | > 3000 nM | < 100 nM | 57.7% | Active | 844 nM |
| Cn1cc(CNc2ccc3n(c2=O)C[C@@H]2C[C@H]3CN(Cc3ccccc3)C2)c(=O)n(C)c1=O (single isomer, unassigned) | 58.8% | > 50000 nM | > 50000 nM | Active | – | – | – | – | – | – | – | – | – | – | – | – | – | – |
| CN1C[C@H]2C[C@@H](C1)c1ccc(NCc3ccc(O)cc3)c(=O)n1C2 | 70.6% | > 50000 nM | > 50000 nM | Active | > 10000 nM | 970 nM | > 3000 nM | > 3000 nM | >51.5 | 780 nM | > 64.1 | > 21.7 | < 100 nM | > 3000 nM | 2300 nM | 64.8% | Active | 471 nM |
| CC(C)NC(=O)Nc1ccc2n(c1=O)C[C@@H]1C[C@H]2CN(C)C1 (single isomer, unassigned) | 19.7% | > 50000 nM | > 50000 nM | Active | – | – | – | – | – | – | – | – | – | – | – | – | – | – |
| CN1C[C@H]2C[C@@H](C1)c1ccc(NC/C=C/c3ccccc3)c(=O)n1C2 | 3.2% | > 50000 nM | > 50000 nM | Active | – | – | – | – | – | – | – | – | – | – | – | – | – | – |
| C=CCNC(=S)N1C[C@H]2C[C@@H](C1)c1cccc(=O)n1C2 | 86.4% | > 50000 nM | > 50000 nM | Active | 315 nM | 140 nM | > 3000 nM | > 3000 nM | >357.1 | < 100 nM | > 500 | > 500 | 7510 nM | > 3000 nM | < 100 nM | 81.2% | Active | < 100 nM |
| C=CCNC(=S)N1C[C@H]2C[C@@H](C1)c1ccc([N+](=O)[O-])c(=O)n1C2 | 48.9% | > 50000 nM | > 50000 nM | Active | – | – | – | – | – | – | – | – | – | – | – | – | – | – |
| CC(C)NC(=S)Nc1ccc2n(c1=O)C[C@@H]1CC2CN(C)C1 (single isomer, unassigned) | 61.4% | > 50000 nM | > 50000 nM | Active | – | – | – | – | – | – | – | – | – | – | – | – | – | – |
| Cn1cc(CNc2ccc3n(c2=O)C[C@@H]2C[C@H]3CN3CCCCC23)c(=O)n(C)c1=O (stereo partly specified) | 53.3% | > 50000 nM | > 50000 nM | Active | – | – | – | – | – | – | – | – | – | – | – | – | – | – |
| C=CCN1C[C@H]2C[C@@H](C1)c1ccc(NCc3cn(C)c(=O)n(C)c3=O)c(=O)n1C2 | 43.3% | > 50000 nM | > 50000 nM | Active | – | – | – | – | – | – | – | – | – | – | – | – | – | – |
| CN1C[C@H]2C[C@@H](C1)c1ccc([N+](=O)[O-])c(=O)n1C2 | 76.7% | > 50000 nM | > 50000 nM | Active | 837 nM | 2400 nM | > 3000 nM | > 3000 nM | >20.8 | 770 nM | > 64.9 | > 500 | 1370 nM | > 3000 nM | – | 61.2% | Active | 1130 nM |
| O=c1cccc2n1C[C@@H]1C[C@H]2CN(C(=S)Nc2ccccc2)C1 | 59.4% | > 50000 nM | > 50000 nM | Active | – | – | – | – | – | – | – | – | – | – | – | – | – | – |
| O=c1ccc(Cl)c2n1C[C@@H]1C[C@H]2CN(C(=S)Nc2ccccc2)C1 | 11.2% | > 50000 nM | > 50000 nM | Active | – | – | – | – | – | – | – | – | – | – | – | – | – | – |
